One assay has as its system A. baumannii. Kind of assay: MBEC, biofilm eradication, A. baumannii. Particulars: 24 hours, 37 °C, TSB. The format is cell-based, Acinetobacter baumannii. As for the experimental part:
(§1) A regrowth assay was used to establish the MBEC of a compound to evaluate the antibiofilm activity.
Biofilm eradication experiments were performed using a pegged-lid microtiter plate assay to determine the MBEC values for compounds of interest, as previously described. […] Sci. Rep. 2017, 7, 2003; and Raval, Y. S., Flurin, L., Mohamed, A., Greenwood-Quaintance, K. E., Beyenal, H., & Patel, R. In Vitro Activity of Hydrogen Peroxide and Hypochlorous Acid Generated by Electrochemical Scaffolds Against Planktonic and Biofilm Bacteria. Antimicrob Agents Chemother. 2021, 65, e01966-20. Briefly, […] of mid-log phase culture diluted to ca. 10^6 CFU/mL in tryptic soy broth (TSB) was added to wells of plat-bottom 96-well plates (Thermo Scientific, 266120) and covered with 96-pegged lid (Thermo Scientific, 445497). Plates were incubated to establish bacterial biofilms after incubation at 37 °C for 24 hours. The pegged lid was then removed, washed with PBS, and transferred to another 96-well plate containing 2-fold serial dilutions of the test compounds (the “challenge plate”). The total volume in each well was […], comprising of […] of compound diluted in water/DMSO, with a starting DMSO concentration of 2.5%, and […] of TSB. Plates were incubated statically at 37 °C for 24 hours. Next, the pegged lids were transferred to a fresh 96-well plate containing […] of TSB and incubated overnight at 37 °C. MBEC values were determined as the lowest test concentration that resulted eradicated biofilm (i.e., wells displaying no turbidity in the final plate).

A further assay deals with established biofilm. The assay is described as follows: Biofilm eradication (MBEC) over the strains tested. The format is cell-based. Particulars: pegged-lid microtiter plate assay. The protocol: as §1
Biofilm eradication experiments were performed using a pegged-lid microtiter plate assay to determine the MBEC values for compounds of interest, as previously described. […] Sci. Rep. 2017, 7, 2003; and Raval, Y. S., Flurin, L., Mohamed, A., Greenwood-Quaintance, K. E., Beyenal, H., & Patel, R. In Vitro Activity of Hydrogen Peroxide and Hypochlorous Acid Generated by Electrochemical Scaffolds Against Planktonic and Biofilm Bacteria. Antimicrob Agents Chemother. 2021, 65, e01966-20. Briefly, […] of mid-log phase culture diluted to ca. 10^6 CFU/mL in tryptic soy broth (TSB) was added to wells of plat-bottom 96-well plates (Thermo Scientific, 266120) and covered with 96-pegged lid (Thermo Scientific, 445497). […] MBEC values were determined as the lowest test concentration that resulted eradicated biofilm (i.e., wells displaying no turbidity in the final plate).
Pleased by the activity of the phosphonium compounds, the inventors sought to further investigate the antibacterial properties while comparing the effects of the heteroatom on activity. To do so, the inventors determined the minimum biofilm eradication concentration (MBEC) of bisQPC ^MeP2P-12,12 and analogous bisQAC 12(2)12 using a pegged-lid microtiter plate assay.

The test system of another assay is P. aeruginosa (PAO1). Kind of assay: MIC against P. aeruginosa. The format is cell-based. Particulars: Pseudomonas aeruginosa; P. aeruginosa (PAO1); 72 hours, 37 °C; read-out: MIC. The protocol: The term “minimum inhibitory concentration (MIC)” means the lowest concentration of an antimicrobial agent that will inhibit the visible growth of a microorganism after overnight incubation. MIC values against bacteria, for example, the Gram-positive Staphylococcus aureus and Enterococcus faecalis and the Gram-negative Escherichia coli and Pseudomonas aeruginosa were determined by standard methods. See also P. A. Wayne, Methods for Dilution Antimicrobial Tests for Bacteria that Grow Aerobically; Approved Standard, Ninth Edition, 2012, CLSI Document M07-A9, Vol. 32 No. 2.
Biological testing procedures were adapted from prior work by Melander and coworkers. For all biological assays, laboratory strains of methicillin-susceptible Staphylococcus aureus MSSA (SH1000), Staphylococcus aureus CA-MRSA (USA300-0114), Staphylococcus aureus HA-MRSA (ATCC 33591), Escherichia coli (MC4100), Enterococcus faecalis (OG1RF), Acinetobacter baumannii (ATCC 17978), were grown with shaking at 37 °C overnight from freezer stocks in 5 mL of the indicated media: SH1000, OG1RF, MC4100, USA300-0114, and ATCC 17978 were grown in BDTM Mueller-Hinton broth (MHB), whereas ATCC 33591 was grown in BDTM tryptic soy broth (TSB). The inoculum were then streaked onto Mueller-Hinton agar (MHA) plates and grown overnight at 37 °C. From the plates, single colonies were selected, diluted into 50 mL of fresh media and grown overnight at 37 °C with shaking for use in the MIC assays. Optical density (OD) measurements were obtained using a SpectraMax iD3 plate reader (Molecular Devices, United States).
Compounds were serially diluted two-fold from stock solutions (1.0 mM) to yield twelve 100 μL test concentrations, wherein the starting concentration of dimethyl sulfoxide (DMSO) was 2.5%. Overnight S. aureus, E. faecalis, E. coli, A. baumannii, USA300-0114 (CA-MRSA), and ATCC 33591 (HA-MRSA) cultures were diluted to ca. 10^6 CFU/mL in MHB or TSB and regrown to mid-exponential phase, as determined by optical density recorded at 600 nm (OD600). All cultures were then diluted again to ca. 10^6 CFU/mL and 100 μL were inoculated into each well of a U-bottom 96-well plate (Corning, 351177) containing 100 μL of compound solution. Plates were incubated statically at 37 °C for 72 hours upon which wells were evaluated visually for bacterial growth. The MIC was determined as the lowest concentration of compound resulting in no bacterial growth visible to the naked eye, based on the highest value in three independent experiments. Aqueous DMSO controls were conducted as appropriate for each compound.
The prepared library of biscationic amphiphilic compounds was assessed for performance as antibacterial disinfectants by determining the minimum inhibitory concentration (MIC) for each against a panel of bacteria. The bacteria selected for the study were chosen to evaluate the broad spectrum antimicrobial performance of the QPCs, and therefore, included both Gram-positive and Gram-negative bacterial strains, including those with known antimicrobial resistance mechanisms. These bacteria include the Gram-positive strains of methicillin-susceptible Staphylococcus aureus [MSSA; SH1000], community-acquired methicillin-resistant Staphylococcus aureus [CA-MRSA; USA 300-0114], hospital-acquired methicillin-resistant Staphylococcus aureus [HA-MRSA; ATCC 33591] and the […], Escherichia coli [MC4100], Acinetobacter baumannii [ATCC 17498] and Pseudomonas aeruginosa [PAO1].

Take `CCCCCCCCCCCC[N+](C)(C)CC[N+](C)(C)CCCCCCCCCCCC` [12(2)12, reference compound]: in the assay with A. baumannii, the MBEC worked out at 4 µM. In addition, the “ability to eradicate established biofilm (in words)” value in the assay with established biofilm is listed as “ability to eradicate established biofilm against three of the strains tested”. Also, the MIC in the assay on P. aeruginosa (PAO1) came to 8 µM.
`CCCCCCCCCCCC[P+](C)(C)CC[P+](C)(C)CCCCCCCCCCC` [^MeP2P-12,12] gave an MBEC with A. baumannii of 8 µM. Moreover, the “ability to eradicate established biofilm (in words)” value with established biofilm is “ability to eradicate established biofilm against three of the strains tested”. Moreover, the MIC in the assay on P. aeruginosa (PAO1) is 8 µM.
